Measurements reported in patent US8470363B2, “Antihypertensive pharmaceutical composition” (Shihuida Pharmaceuticals Group (JILIN) Ltd., priority 2010, dated 2013).

Legend:
[1] = tested on: spontaneous hypertension SHR rats; assay: Blood pressure depressing test in rats (tail artery systolic pressure, tail volume method); type: in vivo, rat; conditions: for systolic pressure at the tail artery, before administration: baseline before administration, n=10 per group; for antihypertensive effect compared with the blank model group / systolic pressure at the tail artery, 1 week after administration / systolic pressure at the tail artery, 2 weeks after administration / systolic pressure at the tail artery, 3 weeks after administration / systolic pressure at the tail artery, 4 weeks after administration: intragastric; for antihypertensive effect compared with the blank model group: doses as in Table 3; for systolic pressure at the tail artery, 1 week after administration / systolic pressure at the tail artery, 2 weeks after administration / systolic pressure at the tail artery, 3 weeks after administration / systolic pressure at the tail artery, 4 weeks after administration: levamlodipine benzenesulfonate 5 mg/kg·d, indapamide 5 mg/kg·d, compound low-dose 2.5+0.5 mg/kg·d, compound high-dose 2.5+2.5 mg/kg·d
Source text: (§1) Experiment method: 50 health spontaneous hypertension SHR rats (female to male 1:1, weight 200-240 g) were equally divided into 5 groups according to the level of the hypertension (the specific grouping method is as shown in Table 3), and intragastrically administrated with the medicine. For the blood pressure of the rate, the systolic pressure at the tail artery of the rat when being wake and quite was indirectly measured by an electronic blood pressure meter through the tail volume method respectively before administration and at the end of one, two, three, and four weeks after administration. [table]

[2] = tested on: spontaneous hypertension SHR rats; assay: Edema side effect in the SHR rat blood pressure test; type: in vivo; conditions: intragastric
Source text: as §1, with “administration.” for “administration. [table]”

[3] = background statement, species not given; cited from earlier work

Molecule	systolic pressure at the tail artery, before administration [1]	antihypertensive effect compared with the blank model group [1]	systolic pressure at the tail artery, 1 week after administration [1]	systolic pressure at the tail artery, 2 weeks after administration [1]	systolic pressure at the tail artery, 3 weeks after administration [1]	systolic pressure at the tail artery, 4 weeks after administration [1]	occurrence of edema side effect ([2]; doses as in Table 3, up to 4 weeks)	half-life [3]	edema incidence rate ([2]; 5 mg levamlodipine benzenesulfonate/kg·d, up to 4 weeks)
CC1Cc2ccccc2N1NC(=O)c1ccc(Cl)c(S(N)(=O)=O)c1 (stereo not drawn) [Indapamide, indapamide]	27.02 ± 1.39 KPa	significant antihypertensive effect	26.88 ± 1.38 Kpa	25.85 ± 1.38 KPa	25.56 ± 1.35 KPa	25.36 ± 1.36 KPa	no edema occurred	17 h	–
levamlodipine benzenesulfonate	26.96 ± 1.29 KPa	significant antihypertensive effect	26.79 ± 1.31 Kpa	25.33 ± 1.26 KPa	24.55 ± 1.28 KPa	23.87 ± 1.28 KPa	–	–	10%
